Key:
[1] = target: T1, Cytochrome Oxidase P450 1A2 (Homo sapiens, UniProt P05177); experiment: Inhibition of cytochrome oxidase P450; format: in vitro ADME; conditions: liver microsomes
T1 construct: a biochemical reaction of prepared liver microsomes supplemented with a redox coenzyme; from tissue; host or cells: liver microsomes
T1 sequence (P05177 1-516): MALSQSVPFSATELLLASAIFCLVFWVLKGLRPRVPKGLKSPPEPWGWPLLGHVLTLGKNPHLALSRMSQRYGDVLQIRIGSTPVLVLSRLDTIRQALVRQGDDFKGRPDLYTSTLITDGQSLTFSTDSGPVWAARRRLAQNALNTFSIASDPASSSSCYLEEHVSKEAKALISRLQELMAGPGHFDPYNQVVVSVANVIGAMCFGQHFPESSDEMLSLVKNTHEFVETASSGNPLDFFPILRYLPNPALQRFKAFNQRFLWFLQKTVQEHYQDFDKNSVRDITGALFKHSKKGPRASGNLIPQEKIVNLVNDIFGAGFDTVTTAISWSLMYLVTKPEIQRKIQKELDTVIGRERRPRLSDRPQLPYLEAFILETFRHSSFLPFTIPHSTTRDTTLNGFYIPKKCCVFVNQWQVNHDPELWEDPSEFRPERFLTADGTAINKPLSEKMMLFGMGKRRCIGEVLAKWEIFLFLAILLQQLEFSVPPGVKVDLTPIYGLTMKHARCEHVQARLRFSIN
Procedure: (§1) Efficacy Experimental Example 5: Inhibition of Cytochrome Oxidase P450
(§2) 100 mM K-Buffer: 9.5 mL of stock solution A was mixed with 40.5 mL of stock solution B, the total volume was adjusted to […] with ultrapure water, and the buffer was titrated to pH 7.4 with KOH or H3PO4.
(§3) The test substance powder was prepared into a stock solution at a certain concentration with DMSO or another organic solvent, which was then further diluted with a suitable organic solvent.
(§4) The liver microsomal in vitro incubation system for the CYP450 enzyme metabolism phenotype study was a biochemical reaction of prepared liver microsomes supplemented with a redox coenzyme and an enzyme-specific selective inhibitor under simulated physiological temperature and environment conditions.
(§5) The concentration of the parent drug or a metabolite thereof in the incubation solution was determined by LC-MS/MS.

[2] = target: T2, Cytochrome Oxidase P450 2C19 (Homo sapiens, UniProt P33261); experiment: Inhibition of cytochrome oxidase P450; format: in vitro ADME; conditions: liver microsomes
T2 construct: a biochemical reaction of prepared liver microsomes supplemented with a redox coenzyme; from tissue; host or cells: liver microsomes
Procedure: as §1, §2, §3, §4, §5

[3] = target: T3, Cytochrome Oxidase P450 2C9 (Homo sapiens, UniProt P11712); experiment: Inhibition of cytochrome oxidase P450; format: in vitro ADME; conditions: liver microsomes
T3 construct: a biochemical reaction of prepared liver microsomes supplemented with a redox coenzyme; from tissue; host or cells: liver microsomes
Procedure: as §1, §2, §3, §4, §5

[4] = target: T4, Cytochrome Oxidase P450 2D6 (Homo sapiens, UniProt P10635); experiment: Inhibition of cytochrome oxidase P450; format: in vitro ADME; conditions: liver microsomes
T4 construct: a biochemical reaction of prepared liver microsomes supplemented with a redox coenzyme; from tissue; host or cells: liver microsomes
Procedure: as §1, §2, §3, §4, §5

[5] = target: T5, Cytochrome Oxidase P450 3A4-M (Homo sapiens, UniProt P08684); experiment: Inhibition of cytochrome oxidase P450; format: in vitro ADME; conditions: liver microsomes
T5 construct: a biochemical reaction of prepared liver microsomes supplemented with a redox coenzyme; from tissue; host or cells: liver microsomes
Procedure: as §1, §2, §3, §4, §5

MSTO-211H cells = experiment: Pharmacodynamic test, MSTO-211H subcutaneous xenograft; format: in vivo, nude mice (BALB/c nu/nu); conditions: MSTO-211H xenograft
Procedure: Healthy female nude mice (BALB/c nu/nu) aged 6-8 weeks were housed in an SPF environment in accordance with animal ethical guidelines. The well-growing 5M MSTO-211H cells were harvested through trypsin digestion, washed in phosphate-buffered saline (PBS), and then resuspended in PBS containing 50% matrigel (BD Biosciences).
Subcutaneous injection was then performed at the dorsolateral sites of the mice, and the tumor volume was measured once every three days thereafter. When the tumor volume reached around 150-200 mm^3, the mice were randomly assigned to different treatment groups. Any one of the compounds described herein was prepared accordingly and administered at an appropriate dose. Finally, the tumor growth in the nude mice was analyzed after 4 to 6 weeks based on the growth of the tumors.

in vivo = conditions: mouse, plasma, po
Procedure: After adding 5% DMSO, the mixture was vortexed. 15% HS15 was then added, and the mixture was vortexed again. Finally, a 10% aqueous cyclodextrin solution was added, and the resulting mixture was vortexed to prepare the final concentration solution or suspension.

T2 sequence (P33261 whole entry): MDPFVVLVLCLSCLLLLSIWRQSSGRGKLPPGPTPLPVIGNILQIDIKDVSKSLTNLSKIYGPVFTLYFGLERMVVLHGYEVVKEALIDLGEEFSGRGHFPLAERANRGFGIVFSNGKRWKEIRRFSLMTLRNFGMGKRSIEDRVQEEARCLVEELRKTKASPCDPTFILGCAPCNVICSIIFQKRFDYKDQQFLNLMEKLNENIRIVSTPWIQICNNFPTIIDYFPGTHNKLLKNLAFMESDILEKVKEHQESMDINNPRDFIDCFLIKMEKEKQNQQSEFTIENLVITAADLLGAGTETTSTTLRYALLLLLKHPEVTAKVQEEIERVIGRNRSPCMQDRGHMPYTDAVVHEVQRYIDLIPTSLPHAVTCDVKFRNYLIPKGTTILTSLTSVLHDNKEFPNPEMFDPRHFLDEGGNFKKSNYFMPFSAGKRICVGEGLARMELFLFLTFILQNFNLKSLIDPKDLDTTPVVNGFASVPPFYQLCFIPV
T5 sequence (P08684 whole entry): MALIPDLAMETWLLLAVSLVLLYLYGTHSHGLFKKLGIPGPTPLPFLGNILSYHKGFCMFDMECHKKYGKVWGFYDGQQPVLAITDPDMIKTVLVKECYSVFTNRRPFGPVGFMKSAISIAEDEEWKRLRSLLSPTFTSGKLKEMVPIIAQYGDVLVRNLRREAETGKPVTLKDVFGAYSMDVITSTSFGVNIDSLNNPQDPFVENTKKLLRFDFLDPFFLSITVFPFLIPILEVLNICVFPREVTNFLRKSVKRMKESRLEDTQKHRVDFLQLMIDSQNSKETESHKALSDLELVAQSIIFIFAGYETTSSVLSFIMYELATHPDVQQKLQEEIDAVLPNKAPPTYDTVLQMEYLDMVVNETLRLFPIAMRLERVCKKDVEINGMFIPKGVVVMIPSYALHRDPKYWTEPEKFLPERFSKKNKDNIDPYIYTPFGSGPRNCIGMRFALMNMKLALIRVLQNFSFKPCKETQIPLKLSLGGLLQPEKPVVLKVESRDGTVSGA
T3 sequence (P11712 whole entry): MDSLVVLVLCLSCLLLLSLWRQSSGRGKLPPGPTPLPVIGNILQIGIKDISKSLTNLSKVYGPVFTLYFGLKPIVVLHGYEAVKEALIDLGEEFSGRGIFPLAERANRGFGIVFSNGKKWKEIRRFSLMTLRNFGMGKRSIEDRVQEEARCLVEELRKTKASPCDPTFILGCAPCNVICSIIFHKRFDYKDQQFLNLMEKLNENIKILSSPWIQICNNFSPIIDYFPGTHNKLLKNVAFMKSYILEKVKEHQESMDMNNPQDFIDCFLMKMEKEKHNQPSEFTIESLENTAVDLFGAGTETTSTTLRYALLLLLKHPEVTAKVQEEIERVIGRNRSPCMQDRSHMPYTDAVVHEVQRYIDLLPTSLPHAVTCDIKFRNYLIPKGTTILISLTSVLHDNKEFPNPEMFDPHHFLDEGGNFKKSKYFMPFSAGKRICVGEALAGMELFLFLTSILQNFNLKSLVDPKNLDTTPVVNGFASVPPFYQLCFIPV
T4 sequence (P10635 whole entry): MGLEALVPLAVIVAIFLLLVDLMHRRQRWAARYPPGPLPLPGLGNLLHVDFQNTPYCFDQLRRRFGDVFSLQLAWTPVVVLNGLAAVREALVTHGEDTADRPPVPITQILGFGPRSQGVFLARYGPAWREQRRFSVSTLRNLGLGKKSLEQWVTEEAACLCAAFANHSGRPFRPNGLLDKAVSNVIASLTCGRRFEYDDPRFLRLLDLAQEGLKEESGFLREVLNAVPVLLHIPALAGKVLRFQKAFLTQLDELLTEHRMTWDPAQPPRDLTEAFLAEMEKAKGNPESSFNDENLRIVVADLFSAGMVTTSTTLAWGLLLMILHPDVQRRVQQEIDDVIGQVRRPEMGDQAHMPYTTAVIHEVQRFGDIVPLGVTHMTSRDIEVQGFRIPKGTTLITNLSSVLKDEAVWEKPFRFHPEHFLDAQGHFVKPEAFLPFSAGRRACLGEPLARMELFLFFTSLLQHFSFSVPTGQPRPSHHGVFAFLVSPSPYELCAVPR

Row | SMILES | IC50 [1] [µM] | IC50 [2] [µM] | IC50 [3] [µM] | IC50 [4] [µM] | IC50 [5] [µM] | TGI (MSTO-211H cells; 25mpk QD) [mpk QD TGI = 107.93%] | AUC(0-t) (in vivo; 100 mg/kg) [µM·h] | AUC(0-t) (in vivo; 200 mg/kg) [µM·h] | Cmax (in vivo; 200 mg/kg) [µM] | TGI (MSTO-211H cells; 150mpk QD) | TGI (MSTO-211H cells; 50mpk QD)
1 | CP(C)(=O)c1ccc2c(Oc3ccc(C(F)(F)F)cc3)cccc2c1 [Example 7] | > 10 | > 10 | > 10 | > 10 | > 10 | 25 | 2830 |  |  |  | 
2 | CP(C)(=O)c1ccc(Nc2ccc(C(F)(F)F)cc2)c(-c2ccccn2)c1 [Example 10] |  |  |  |  |  |  |  | 3380 | 148 |  | 
3 | CP(C)(=O)c1cnc(Nc2ccc(C(F)(F)F)cc2)c(-c2cn3c(n2)CCC3)c1 [Example 22] | > 10 | > 10 | > 10 | > 10 | > 10 |  |  | 2520 |  | 150mpk QD TGI = 102.62% | 
4 | Cn1cnc(-c2cc(P(C)(C)=O)cnc2Nc2ccc(C(F)(F)F)cc2)c1 [Example 8] | > 10 | > 10 | > 10 | > 10 | > 10 |  |  | 2430 |  |  | 50mpk QD TGI = 104.28%
5 | CP(C)(=O)c1ccc2c(c1)c1ccccc1n2-c1ccc(C(F)(F)F)cc1 [Example 1] | > 10 | > 10 | > 10 | > 10 | > 10 |  |  |  |  |  | 
6 | Cn1cnc(-c2cc(P(C)(C)=O)ccc2Nc2ccc(C(F)(F)F)cc2)c1 [Example 14] | > 10 | > 10 | > 10 | > 10 | > 10 |  |  | 3140 | 141 | 150mpk QD TGI = 118.27% | 50mpk QD TGI = 100.43%

From EP4596561A1, “PHOSPHORUS-CONTAINING COMPOUND, PHARMACEUTICAL COMPOSITION AND USE THEREOF” (Suzhou Genhouse Bio Co., Ltd., priority 2022, dated 2024)
